Here are results for six compounds from US20250163018A1, “KEY AMINO ACID BASED ON PROTEIN-DRUG INTERACTIONS INDUCED NEW CRYSTAL FORMS OF TRELAGLIPTIN AND PREPARATION METHODS THEREOF” (GUANGDONG UNIVERSITY OF TECHNOLOGY, priority 2024, published 2025).

Values after ≈ are worked out from the molar mass of the structure shown. Where two headings read alike, the source gives them in different places.

The nature of the data set: Equilibrium solubility of crystal forms by UV-Vis spectrophotometry (279 nm). It counts as physicochemical. The text has this:
The specific operation was as follows: take samples of five new and original crystalline forms after reaching the dissolution equilibrium, filter them with 0.22 μm filter membrane, take appropriate amount of filtrate, according to the UV-Vis spectrophotometric method (Chinese Pharmacopoeia 2020 edition), determine the absorbance value at the wavelength of 279 nm, and substitute them into the standard curve to obtain the solubility of five new and original crystalline forms, as shown in Table 1.

Where [1] appears, read: pH = 7.0 aqueous solution (deionized water).

A word on the solubility: it is the concentration that dissolves in the medium under given conditions. Consider `Cn1c(=O)cc(N2CCC[C@@H](N)C2)n(Cc2cc(F)ccc2C#N)c1=O` [TRE-IV, 2-[[6-[(3R)-3-aminopiperidin-1-yl]-3-methyl-2,4-dioxopyrimidin-1-yl]methyl]-4-fluorobenzonitrile], for which the solubility reads like this: (pH = 1.2 hydrochloric acid) 73.49 mg/mL (≈ 206 mM); (pH = 6.8 PBS) 35.05 mg/mL (≈ 98.1 mM); under setting [1], 19.56 mg/mL (≈ 54.7 mM); (pH = 7.4 PBS) 35.94 mg/mL (≈ 101 mM).

As for `Cn1c(=O)cc(N2CCC[C@@H](N)C2)n(Cc2cc(F)ccc2C#N)c1=O` [TRE-V, 2-[[6-[(3R)-3-aminopiperidin-1-yl]-3-methyl-2,4-dioxopyrimidin-1-yl]methyl]-4-fluorobenzonitrile], the solubility is recorded as 76.01 mg/mL (≈ 213 mM) (pH = 1.2 hydrochloric acid), 36.12 mg/mL (≈ 101 mM) (pH = 6.8 PBS), 12.64 mg/mL (≈ 35.4 mM) under setting [1] and 37.51 mg/mL (≈ 105 mM) (pH = 7.4 PBS).

As to `Cn1c(=O)cc(N2CCC[C@@H](N)C2)n(Cc2cc(F)ccc2C#N)c1=O` [TRE-III, 2-[[6-[(3R)-3-aminopiperidin-1-yl]-3-methyl-2,4-dioxopyrimidin-1-yl]methyl]-4-fluorobenzonitrile], the solubility amounted to 39.76 mg/mL (≈ 111 mM) (pH = 1.2 hydrochloric acid), 35.90 mg/mL (≈ 100 mM) (pH = 6.8 PBS), 14.93 mg/mL (≈ 41.8 mM) under setting [1] and 28.26 mg/mL (≈ 79.1 mM) (pH = 7.4 PBS).

`Cn1c(=O)cc(N2CCC[C@@H](N)C2)n(Cc2cc(F)ccc2C#N)c1=O` [TRE-II, 2-[[6-[(3R)-3-aminopiperidin-1-yl]-3-methyl-2,4-dioxopyrimidin-1-yl]methyl]-4-fluorobenzonitrile]: the solubility is on record as 45.91 mg/mL (≈ 128 mM) (pH = 1.2 hydrochloric acid), 40.01 mg/mL (≈ 112 mM) (pH = 6.8 PBS), 15.98 mg/mL (≈ 44.7 mM) under setting [1] and 37.32 mg/mL (≈ 104 mM) (pH = 7.4 PBS).

As for `Cn1c(=O)cc(N2CCC[C@@H](N)C2)n(Cc2cc(F)ccc2C#N)c1=O` [TRE-I, 2-[[6-[(3R)-3-aminopiperidin-1-yl]-3-methyl-2,4-dioxopyrimidin-1-yl]methyl]-4-fluorobenzonitrile], the solubility (PBS, pH 6.8, aqueous buffer, thermodynamic from solid, pH = 6.8 PBS, read-out: solubility) was 34.2 mg/mL (≈ 95.8 mM); the solubility (PBS, pH 7.4, aqueous buffer, thermodynamic from solid, pH = 7.4 PBS, read-out: solubility) turned out to be 28.6 mg/mL (≈ 80 mM); the solubility (deionized water, pH 7, water, thermodynamic from solid, pH = 7.0 aqueous solution (deionized water), read-out: solubility) came to 13.2 mg/mL (≈ 36.9 mM); the solubility (hydrochloric acid solution, pH 1.2, simulated gastric fluid, thermodynamic from solid, pH = 1.2 hydrochloric acid, read-out: solubility) is 54 mg/mL (≈ 151 mM).

Take `Cn1c(=O)cc(N2CCC[C@@H](N)C2)n(Cc2cc(F)ccc2C#N)c1=O` [original crystal form, 2-[[6-[(3R)-3-aminopiperidin-1-yl]-3-methyl-2,4-dioxopyrimidin-1-yl]methyl]-4-fluorobenzonitrile, reference compound]: the solubility (pH = 6.8 PBS) was 15.46 mg/mL (≈ 43.3 mM), the solubility under setting [1] was 3.40 mg/mL (≈ 9.51 mM) and the solubility (pH = 7.4 PBS) turned out to be 12.94 mg/mL (≈ 36.2 mM).
